In ChEMBL document CHEMBL3297669, “Suvanine sesterterpenes and deacyl irciniasulfonic acids from a tropical Coscinoderma sp. sponge” (J Nat Prod, 2014):
Converted amounts (≈) assume the structure as drawn.

Experiments:
[1] = tested on: Pyricularia grisea; experiment: Inhibition of Magnaporthe grisea Guy 11 isocitrate lyase
[2] = tested on: Escherichia coli; experiment: Antimicrobial activity against Escherichia coli ATCC 35270 after 24 hrs by two-fold broth dilution method; type: functional; details: ATCC 35270, 24 h
[3] = tested on: Kocuria rhizophila; experiment: Antimicrobial activity against Kocuria rhizophila NBRC 12708 after 24 hrs by two-fold broth dilution method; type: functional; details: NBRC 12708, 24 h
[4] = tested on: Bacillus spizizenii; experiment: Antimicrobial activity against Bacillus subtilis ATCC 6633 after 24 hrs by two-fold broth dilution method; type: functional; details: ATCC 6633, 24 h
[5] = tested on: A549; experiment: Cytotoxicity against human A549 cells; type: functional; details: read-out: LC50 (the source's name)
[6] = tested on: Proteus hauseri; experiment: Antimicrobial activity against Proteus hauseri NBRC 3851 after 24 hrs by two-fold broth dilution method; type: functional; details: NBRC 3851, 24 h
[7] = tested on: Staphylococcus aureus; experiment: Antimicrobial activity against Staphylococcus aureus ATCC 6538p after 24 hrs by two-fold broth dilution method; type: functional
[8] = tested on: K562; experiment: Cytotoxicity against human K562 cells; type: functional; details: read-out: LC50 (the source's name)
[9] = tested on: Salmonella enterica; experiment: Antimicrobial activity against Salmonella enterica ATCC 14028 after 24 hrs by two-fold broth dilution method; type: functional; details: ATCC 14028, 24 h
[10] = Inhibition of sortase A (unknown origin)

Row | SMILES | MIC [1] [µg/mL] | MIC [2] [µg/mL] | MIC [3] [µg/mL] | MIC [4] [µg/mL] | CC50 [5] [µg/mL] | MIC [6] [µg/mL] | MIC [7] [µg/mL] | CC50 [8] [µg/mL] | MIC [9] [µg/mL] | IC50 [10] [µM]
1 | CC1(C)CCC[C@]2(C)[C@H]3CC/C(=C\OS(=O)(=O)[O-])[C@H](CCC4=CCN(CC(=O)O)C4=O)[C@@]3(C)CC[C@@H]12.[Na+] | 62 | > 100 | > 100 | > 100 | 1.4 | > 100 | > 100 | 1.3 | > 100 | > 100
2 | C[S+]([O-])CCCN1CC=C(CC[C@H]2/C(=C/OS(=O)(=O)[O-])CC[C@H]3[C@]2(C)CC[C@H]2C(C)(C)CCC[C@]32C)C1=O.[Na+] (stereo not given in full) | 24 | – | – | – | 5.5 | – | > 100 | 3.9 | 50 | > 100
3 | C[C@H](C(=O)O)N1CC=C(CC[C@H]2/C(=C/OS(=O)(=O)[O-])CC[C@H]3[C@]2(C)CC[C@H]2C(C)(C)CCC[C@]32C)C1=O.[Na+] | 48 | > 100 | > 100 | > 100 | 1.1 | > 100 | > 100 | 1.9 | 50 | > 100
4 | C/C(=C/C(=O)NCCS(=O)(=O)[O-])CCCCC[C@H](C)O.[Na+] | > 100 | – | – | – | > 100 | – | > 100 | > 100 | > 100 | > 100
5 | CC1(C)CCC[C@]2(C)[C@H]3CC/C(=C\OS(=O)(=O)[O-])[C@H](CCC4=CCN(CCS(=O)(=O)O)C4=O)[C@@]3(C)CC[C@@H]12.[Na+] | 90 | > 100 | > 100 | > 100 | 2 | > 100 | > 100 | 4.6 | > 100 | > 100
6 | CC1(C)CCC[C@]2(C)[C@H]3CC/C(=C\OS(=O)(=O)[O-])[C@H](CCc4ccoc4)[C@@]3(C)CC[C@@H]12.CN(C)c1n(C)c(=O)c2c([n+]1C)N(C)CN2C [listing 1 of 2 here] | 28 | – | – | – | – | – | – | – | – | –
7 | CC1(C)CCC[C@]2(C)[C@H]3CC/C(=C\OS(=O)(=O)[O-])[C@H](CCc4ccoc4)[C@@]3(C)CC[C@@H]12.CN(C)c1n(C)c(=O)c2c([n+]1C)N(C)CN2C [listing 2 of 2 here] | – | > 100 | 6.25 | 0.78 | 1.9 | 6.25 | 6.25 | 2.2 | 0.78 | > 100
8 | CC(=O)CCCCC/C(C)=C\C(=O)NCCS(=O)(=O)O | > 100 | > 100 | > 100 | > 100 | > 100 | > 100 | > 100 | > 100 | > 100 | > 100
9 | CC1(C)CCC[C@]2(C)[C@H]3CC/C(=C\OS(=O)(=O)[O-])[C@H](CCc4ccoc4)[C@@]3(C)CC[C@@H]12.C[N+](C)=C(N)N | 51 | – | – | – | – | – | – | – | – | –
10 | O=C(O)CC[N+](=O)[O-] | 2.5 (≈ 21 µM) | – | – | – | – | – | – | – | – | > 100
11 | CC1(C)CCC[C@]2(C)[C@H]3CC/C(=C\OS(=O)(=O)[O-])[C@H](CCC4=CC(=O)N(CCS(=O)(=O)O)C4)[C@@]3(C)CC[C@@H]12.[Na+] | 50 | > 100 | > 100 | > 100 | 3.5 | > 100 | > 100 | 3.6 | > 100 | > 100
12 | CC1(C)S[C@@H]2[C@H](NC(=O)[C@H](N)c3ccccc3)C(=O)N2[C@H]1C(=O)O [AMPICILLIN] | – | 3.12 (≈ 8.93 µM) | 0.39 (≈ 1.12 µM) | 0.39 (≈ 1.12 µM) | – | 0.78 (≈ 2.23 µM) | 0.39 (≈ 1.12 µM) | – | 0.39 (≈ 1.12 µM) | > 100
13 | C[C@@H]1O[C@@H](O[C@H]2C[C@@H](O)[C@]3(CO)[C@H]4[C@H](O)C[C@]5(C)[C@@H](C6=CC(=O)OC6)CC[C@]5(O)[C@@H]4CC[C@]3(O)C2)[C@H](O)[C@H](O)[C@H]1O [OUABAIN] | – | – | – | – | – | – | – | – | – | > 100
14 | CC(C)[C@@H](C(=O)O)N1CC(CC[C@H]2/C(=C/OS(=O)(=O)[O-])CC[C@H]3[C@]2(C)CC[C@H]2C(C)(C)CCC[C@]32C)=CC1=O.[Na+] | 64 | > 100 | > 100 | > 100 | 1.9 | > 100 | > 100 | 3.9 | 100 | > 100
15 | CC1(C)CCC[C@]2(C)[C@H]3CC/C(=C\OS(=O)(=O)[O-])[C@H](CCc4ccoc4)[C@@]3(C)CC[C@@H]12.C[N+](C)=C(N)N [SUVANINE] | – | > 100 | > 100 | 12.5 | 1.7 | 100 | > 100 | 0.9 | 25 | > 100
16 | COc1cccc2c1C(=O)c1c(O)c3c(c(O)c1C2=O)C[C@@](O)(C(=O)CO)C[C@@H]3O[C@H]1C[C@H](N)[C@H](O)[C@H](C)O1 [DOXORUBICIN] | – | – | – | – | 0.8 (≈ 1.47 µM) | – | – | 0.7 (≈ 1.29 µM) | – | > 100
